Experiment [1] has as its target 4-hydroxyphenylpyruvate dioxygenase (Sus scrofa, UniProt Q02110). The experiment is described as follows: Inhibition of pig HPPD.
Experiment [2] has as its target Dihydroorotate dehydrogenase (quinone), mitochondrial (Rattus norvegicus, UniProt Q63707). The experiment is described as follows: Inhibition of rat DHODH.

Sequence of 4-hydroxyphenylpyruvate dioxygenase (Q02110 whole entry): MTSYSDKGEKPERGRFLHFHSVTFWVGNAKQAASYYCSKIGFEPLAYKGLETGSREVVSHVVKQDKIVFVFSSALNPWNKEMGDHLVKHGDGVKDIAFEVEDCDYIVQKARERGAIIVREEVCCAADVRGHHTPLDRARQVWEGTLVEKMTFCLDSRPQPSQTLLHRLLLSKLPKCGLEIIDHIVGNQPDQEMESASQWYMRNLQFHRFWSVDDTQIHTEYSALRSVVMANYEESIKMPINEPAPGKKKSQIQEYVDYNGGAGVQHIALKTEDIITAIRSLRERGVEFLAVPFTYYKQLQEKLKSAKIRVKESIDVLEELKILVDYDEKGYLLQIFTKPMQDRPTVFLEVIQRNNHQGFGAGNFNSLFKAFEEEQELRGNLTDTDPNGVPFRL
Sequence of Dihydroorotate dehydrogenase (quinone), mitochondrial (Q63707 whole entry): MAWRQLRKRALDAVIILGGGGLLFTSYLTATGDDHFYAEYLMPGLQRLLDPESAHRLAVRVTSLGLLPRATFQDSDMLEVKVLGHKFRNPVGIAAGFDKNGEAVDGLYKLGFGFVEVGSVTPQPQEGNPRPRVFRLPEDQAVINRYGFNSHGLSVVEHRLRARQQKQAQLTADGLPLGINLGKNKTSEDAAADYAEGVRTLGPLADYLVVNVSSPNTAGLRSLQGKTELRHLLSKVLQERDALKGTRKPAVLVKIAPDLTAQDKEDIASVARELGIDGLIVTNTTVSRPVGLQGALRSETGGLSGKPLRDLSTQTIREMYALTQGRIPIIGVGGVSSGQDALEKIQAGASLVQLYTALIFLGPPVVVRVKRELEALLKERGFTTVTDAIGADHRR

Turning to `O=C(c1c(O)c2ccccc2oc1=O)C1CC1`, in experiment [1], 322 µM corresponded to half-maximal inhibition (IC50). The same measure, in the same setting: as for `O=C1CCCC(O)=C1C(=O)C1CCC1`, the figure is 21 µM. On to `CC(C)/C(O)=C(\C#N)C(=O)Nc1ccc(C(F)(F)F)cc1`, for which the concentration for half-maximal inhibition (IC50) (as a rule, the concentration that inhibits the measured activity by half) in experiment [2] came to 0.295 µM. In turn, `O=C1CCCC(O)=C1C(=O)C1CCCC1` gave a concentration for half-maximal inhibition (IC50) in experiment [1] of 33.1 µM.

Source of the values: ChEMBL document CHEMBL1139746, “Enzyme inhibition potency enhancement by active site metal chelating and hydrogen bonding induced conformation-restricted cyclopropanecarbonyl derivatives” (Bioorg Med Chem Lett, 2006).
